# According to patent US10597388B2, “Pyridazinone herbicides” (FMC CORPORATION, priority 2014, dated 2020):
# How the values were obtained:
# Test in all cases: Test D controlled growth environment herbicide test, pre- and postemergence
# Format in all cases: in vivo
# [1] = test system: oat, wild (wild oat, Avena fatua)
# Method in brief: (§1)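 Rating is visual, 0–100 scale (100 = complete control), made against untreated plants 14–21 d after treatment in controlled growth conditions. Postemergence sprays went onto 1- to 4-leaf plants in peat medium; preemergence sprays onto silt loam after sowing; formulation included a surfactant.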
# [2] = test system: oilseed rape (Brassica napus)
# Method in brief: as §1
# [3] = test system: pigweed (Amaranthus retroflexus)
# Method in brief: as §1
# [4] = test system: buckwheat, wild (wild buckwheat, Polygonum convolvulus)
# Method in brief: as §1
# [5] = test system: chickweed (common chickweed, Stellaria media)
# Method in brief: as §1
# [6] = test system: wheat, winter (winter wheat, Triticum aestivum)
# Method in brief: as §1
# [7] = test system: barley, spring (spring barley, Hordeum vulgare)
# Method in brief: as §1
# [8] = test system: wheat, spring (spring wheat, Triticum aestivum)
# Method in brief: as §1
# [9] = test system: field violet (Viola arvensis)
# Method in brief: as §1
# [10] = test system: canarygrass (Phalaris minor)
# Method in brief: as §1
# [11] = test system: Russian thistle (Salsola kali)
# Method in brief: as §1
# [12] = test system: galium (catchweed bedstraw, Galium aparine)
# Method in brief: as §1
# [13] = test system: kochia (Kochia scoparia)
# Method in brief: as §1
# [14] = Postemergence, 31 g ai/ha, scale 0 to 100 (0 no effect, 100 complete control)
# [15] = Postemergence, 125 g ai/ha, visual rating on scale 0 (no effect) to 100 (complete control), 14 to 21 d
# [16] = Postemergence, 250 g ai/ha, scale 0 to 100 (0 no effect, 100 complete control)
# [17] = postemergence, 62 g ai/ha, scale 0 to 100, 0 no effect, 100 complete control
smiles,measurement,setting,value
Cc1cc(C)c2ccccc2c1-c1c(O)c(C)nn(C)c1=O [Compound 21],"Oat, Wild plant response rating",[1]; [14],80
same,"Plant response rating, Oat, Wild",[1]; [15],85
same,"Plant response rating, Oat, Wild",[1]; [16],100
same,"Plant response rating, Oat, Wild",[1]; [17],85
same,Oilseed Rape plant response rating,[2]; [14],80
same,"Plant response rating, Oilseed Rape",[2]; [15],100
same,"Plant response rating, Oilseed Rape",[2]; [16],100
same,"Plant response rating, Oilseed Rape",[2]; [17],100
same,Pigweed plant response rating,[3]; [14],80
same,"Plant response rating, Pigweed",[3]; [15],90
same,"Plant response rating, Pigweed",[3]; [16],98
same,"Plant response rating, Pigweed",[3]; [17],85
same,"Buckwheat, Wild plant response rating",[4]; [14],100
same,"Plant response rating, Buckwheat, Wild",[4]; [15],100
same,"Plant response rating, Buckwheat, Wild",[4]; [16],100
same,"Plant response rating, Buckwheat, Wild",[4]; [17],100
same,Chickweed plant response rating,[5]; [14],90
same,"Plant response rating, Chickweed",[5]; [15],100
same,"Plant response rating, Chickweed",[5]; [16],100
same,"Plant response rating, Chickweed",[5]; [17],100
same,"Wheat, Winter plant response rating",[6]; [14],20
same,"Plant response rating, Wheat, Winter",[6]; [15],35
same,"Plant response rating, Wheat, Winter",[6]; [16],40
same,"Plant response rating, Wheat, Winter",[6]; [17],25
same,"Plant response rating, Barley, Spring",[7]; [14],0
same,"Plant response rating, Barley, Spring",[7]; [15],10
same,"Plant response rating, Barley, Spring",[7]; [16],30
same,"Plant response rating, Barley, Spring",[7]; [17],5
same,"Wheat, Spring plant response rating",[8]; [14],20
same,"Plant response rating, Wheat, Spring",[8]; [15],40
same,"Plant response rating, Wheat, Spring",[8]; [16],50
same,"Plant response rating, Wheat, Spring",[8]; [17],30
same,Field Violet plant response rating,[9]; [14],95
same,"Plant response rating, Field Violet",[9]; [15],100
same,"Plant response rating, Field Violet",[9]; [16],100
same,"Plant response rating, Field Violet",[9]; [17],95
same,Canarygrass plant response rating,[10]; [14],80
same,"Plant response rating, Canarygrass",[10]; [15],85
same,"Plant response rating, Canarygrass",[10]; [16],95
same,"Plant response rating, Canarygrass",[10]; [17],80
same,Russian Thistle plant response rating,[11]; [14],70
same,"Plant response rating, Russian Thistle",[11]; [15],80
same,"Plant response rating, Russian Thistle",[11]; [16],85
same,"Plant response rating, Russian Thistle",[11]; [17],75
same,Galium plant response rating,[12]; [14],100
same,"Plant response rating, Galium",[12]; [15],100
same,"Plant response rating, Galium",[12]; [16],100
same,"Plant response rating, Galium",[12]; [17],100
same,Kochia plant response rating,[13]; [14],35
same,"Plant response rating, Kochia",[13]; [15],75
same,"Plant response rating, Kochia",[13]; [16],85
same,"Plant response rating, Kochia",[13]; [17],45
